We go through 1 compound from paper PMC5218480 (PLoS ONE, 2017).

For this experiment, the system named is MV-4-11 cells. Kind of experiment: Gene expression microarray analysis (Affymetrix PrimeView) and GSEA. It counts as cell-based, human. On the set-up: RFU PODN (11730768_x_at) / Fold change /veh PODN (11730768_x_at) / RFU LINC00158 (11744669_a_at) / Fold change /veh LINC00158 (11744669_a_at) / RFU DUSP10 (11751237_a_at) / Fold change /veh DUSP10 (11751237_a_at) / RFU ID3 (11757404_x_at) / Fold change /veh ID3 (11757404_x_at) / RFU PLEKHG5 (11737974_s_at) / Fold change /veh PLEKHG5 (11737974_s_at) / RFU LRRC4B (11730491_at) / Fold change /veh LRRC4B (11730491_at) / RFU GIMAP4 (11747438_a_at) / Fold change /veh GIMAP4 (11747438_a_at) / RFU KRT8 (11758183_x_at) / Fold change /veh KRT8 (11758183_x_at) / RFU CNN1 (11734310_a_at) / Fold change /veh CNN1 (11734310_a_at) / RFU VPS37D (11726825_at) / Fold change /veh VPS37D (11726825_at) / RFU C10orf10 (11716522_x_at) / Fold change /veh C10orf10 (11716522_x_at) / RFU KIR2DL2 /// KIR2DL4 /// KIR2DL5A /// KIR2DL5B /// KIR2DS1 /// KIR2DS2 /// KIR2DS3 /// KIR2DS4 /// KIR3DL3 /// KIR3DL3 /// KIR3DS1 (11738374_at) / Fold change /veh KIR2DL2 /// KIR2DL4 /// KIR2DL5A /// KIR2DL5B /// KIR2DS1 /// KIR2DS2 /// KIR2DS3 /// KIR2DS4 /// KIR3DL3 /// KIR3DL3 /// KIR3DS1 (11738374_at) / RFU C1QL1 (11718748_at) / Fold change /veh C1QL1 (11718748_at) / RFU TMPRSS4 (11747572_a_at) / Fold change /veh TMPRSS4 (11747572_a_at) / RFU HAMP (11756126_x_at) / Fold change /veh HAMP (11756126_x_at) / RFU RNFT2 (11725882_a_at) / Fold change /veh RNFT2 (11725882_a_at) / RFU NR4A2 (11747474_a_at) / Fold change /veh NR4A2 (11747474_a_at) / RFU ABCC12 (11746883_a_at) / Fold change /veh ABCC12 (11746883_a_at) / RFU TMEM136 (11760407_x_at) / Fold change /veh TMEM136 (11760407_x_at) / RFU CLDN22 /// WWC2 (11732394_at) / Fold change /veh CLDN22 /// WWC2 (11732394_at) / RFU HLA-DPB1 (11760878_x_at) / Fold change /veh HLA-DPB1 (11760878_x_at) / RFU SPINT1 (11716480_a_at) / Fold change /veh SPINT1 (11716480_a_at) / RFU GAP43 (11754022_s_at) / Fold change /veh GAP43 (11754022_s_at) / RFU A4GNT (11735810_at) / Fold change /veh A4GNT (11735810_at) / RFU PRB3 (11715151_x_at) / Fold change /veh PRB3 (11715151_x_at) / RFU TUBB4B (11761932_at) / Fold change /veh TUBB4B (11761932_at) / RFU CAPN14 (11732068_a_at) / Fold change /veh CAPN14 (11732068_a_at) / RFU TMCC2 (11721928_a_at) / Fold change /veh TMCC2 (11721928_a_at) / RFU IRGQ (11745062_a_at) / Fold change /veh IRGQ (11745062_a_at) / RFU FAM174B (11720279_a_at) / Fold change /veh FAM174B (11720279_a_at) / RFU TMPRSS4 (11748680_a_at) / Fold change /veh TMPRSS4 (11748680_a_at) / RFU FAM212B (11763350_a_at) / Fold change /veh FAM212B (11763350_a_at) / RFU PLEKHG5 (11743358_a_at) / Fold change /veh PLEKHG5 (11743358_a_at) / RFU ZSCAN30 (11745921_a_at) / Fold change /veh ZSCAN30 (11745921_a_at) / RFU CMKLR1 (11741424_a_at) / Fold change /veh CMKLR1 (11741424_a_at) / RFU LOC101060620 /// MAPK8IP1 (11723275_at) / Fold change /veh LOC101060620 /// MAPK8IP1 (11723275_at) / RFU SPTSSB (11747773_x_at) / Fold change /veh SPTSSB (11747773_x_at) / RFU PRSS12 (11739890_at) / Fold change /veh PRSS12 (11739890_at) / RFU BIN1 (11741810_x_at) / Fold change /veh BIN1 (11741810_x_at) / RFU WNT11 (11732464_a_at) / Fold change /veh WNT11 (11732464_a_at) / RFU C10orf10 (11716521_a_at) / Fold change /veh C10orf10 (11716521_a_at) / RFU C5orf56 (11738089_at) / Fold change /veh C5orf56 (11738089_at) / RFU CYB561 (11721691_x_at) / Fold change /veh CYB561 (11721691_x_at) / RFU ANKRD19P (11752326_a_at) / Fold change /veh ANKRD19P (11752326_a_at) / RFU OR2T12 /// OR2T33 /// OR2T8 (11738714_s_at) / Fold change /veh OR2T12 /// OR2T33 /// OR2T8 (11738714_s_at) / RFU VCAN (11748164_a_at) / Fold change /veh VCAN (11748164_a_at) / RFU JSRP1 (11732532_at) / Fold change /veh JSRP1 (11732532_at) / RFU KRTAP10-11 (11738290_x_at) / Fold change /veh KRTAP10-11 (11738290_x_at) / RFU MYO3A (11730013_a_at) / Fold change /veh MYO3A (11730013_a_at) / RFU EBF3 (11725865_a_at) / Fold change /veh EBF3 (11725865_a_at) / RFU CAMK2N1 (11719241_x_at) / Fold change /veh CAMK2N1 (11719241_x_at) / RFU C5orf56 (11738088_a_at) / Fold change /veh C5orf56 (11738088_a_at) / RFU OLFML3 (11715873_a_at) / Fold change /veh OLFML3 (11715873_a_at) / RFU LOC100653217 /// NTM (11731650_a_at) / Fold change /veh LOC100653217 /// NTM (11731650_a_at) / RFU MAPK11 (11762145_a_at) / Fold change /veh MAPK11 (11762145_a_at) / RFU FIZ1 (11724087_x_at) / Fold change /veh FIZ1 (11724087_x_at) / RFU OASL (11726364_x_at) / Fold change /veh OASL (11726364_x_at) / RFU SOX15 (11748057_x_at) / Fold change /veh SOX15 (11748057_x_at) / RFU CD79A (11719716_a_at) / Fold change /veh CD79A (11719716_a_at) / RFU HIST1H1D (11736915_at) / Fold change /veh HIST1H1D (11736915_at) / RFU CASKIN2 (11723855_a_at) / Fold change /veh CASKIN2 (11723855_a_at) / RFU LOC730098 (11760151_x_at) / Fold change /veh LOC730098 (11760151_x_at) / RFU OR4N2 (11742367_at) / Fold change /veh OR4N2 (11742367_at) / RFU PRRT2 (11749266_a_at) / Fold change /veh PRRT2 (11749266_a_at) / RFU SNX32 (11753110_a_at) / Fold change /veh SNX32 (11753110_a_at) / RFU CDHR5 (11726645_a_at) / Fold change /veh CDHR5 (11726645_a_at) / RFU RCAN1 (11760418_a_at) / Fold change /veh RCAN1 (11760418_a_at) / RFU FAM167A (11723789_a_at) / Fold change /veh FAM167A (11723789_a_at) / RFU FAM26E (11764081_at) / Fold change /veh FAM26E (11764081_at) / RFU ISYNA1 (11749810_s_at) / Fold change /veh ISYNA1 (11749810_s_at) / RFU ACY1 (11761880_at) / Fold change /veh ACY1 (11761880_at) / RFU 11764098_at / Fold change /veh 11764098_at / RFU SAMD14 (11745864_x_at) / Fold change /veh SAMD14 (11745864_x_at) / RFU NPB (11741838_a_at) / Fold change /veh NPB (11741838_a_at) / RFU TMPRSS6 (11731388_a_at) / Fold change /veh TMPRSS6 (11731388_a_at) / RFU KRTAP10-2 (11738614_at) / Fold change /veh KRTAP10-2 (11738614_at) / RFU ARHGAP8 /// PRR5-ARHGAP8 (11727945_x_at) / Fold change /veh ARHGAP8 /// PRR5-ARHGAP8 (11727945_x_at) / RFU KRTAP5-7 /// NADSYN1 (11734609_at) / Fold change /veh KRTAP5-7 /// NADSYN1 (11734609_at) / RFU RASL12 (11751679_a_at) / Fold change /veh RASL12 (11751679_a_at) / RFU CDKN2B (11736163_a_at) / Fold change /veh CDKN2B (11736163_a_at) / RFU PRF1 (11729649_at) / Fold change /veh PRF1 (11729649_at) / RFU, ZNF638 /// ZNF638-IT1 / Fold change vs veh, ZNF638 /// ZNF638-IT1 / RFU, PANK3 / Fold change vs veh, PANK3 / RFU, SH3YL1 / Fold change vs veh, SH3YL1 / RFU, ZEB2 / Fold change vs veh, ZEB2 / RFU, NRIP1 / Fold change vs veh, NRIP1 / RFU, PTTG1IP / Fold change vs veh, PTTG1IP / RFU, CAPN2 / Fold change vs veh, CAPN2 / RFU, MED14 / Fold change vs veh, MED14 / RFU, SNORA58 / Fold change vs veh, SNORA58 / RFU, C1orf63 / Fold change vs veh, C1orf63 / RFU, LRRFIP1 / Fold change vs veh, LRRFIP1 / RFU, NDUFAF7 / Fold change vs veh, NDUFAF7 / RFU, SLC12A2 / Fold change vs veh, SLC12A2 / RFU, IBTK / Fold change vs veh, IBTK / RFU, ESF1 / Fold change vs veh, ESF1 / Fold change vs veh, TMEM50B / RFU, TAOK1 / Fold change vs veh, TAOK1 / RFU, ACBD3 / Fold change vs veh, ACBD3 / RFU, TMA16 / Fold change vs veh, TMA16 / RFU, RWDD3 / Fold change vs veh, RWDD3 / RFU, BCAT1 / Fold change vs veh, BCAT1 / RFU, EDEM3 / Fold change vs veh, EDEM3 / RFU, TMEM33 / Fold change vs veh, TMEM33 / RFU, WDR75 / Fold change vs veh, WDR75 / RFU, AHCTF1 / Fold change vs veh, AHCTF1 / RFU, TFRC / Fold change vs veh, TFRC / RFU, ZDHHC17 / Fold change vs veh, ZDHHC17 / RFU, NOM1 / Fold change vs veh, NOM1 / RFU, ARL8B / Fold change vs veh, ARL8B / RFU, ZBTB11 / Fold change vs veh, ZBTB11 / RFU, TAMM41 / Fold change vs veh, TAMM41 / RFU, KIAA1704 /// LOC100996395 / Fold change vs veh, KIAA1704 /// LOC100996395 / RFU, ING1 / Fold change vs veh, ING1 / RFU, TRMT61B / Fold change vs veh, TRMT61B / RFU, FUBP3 / Fold change vs veh, FUBP3 / RFU, TP53 / Fold change vs veh, TP53 / RFU, TNKS2 / Fold change vs veh, TNKS2 / RFU, ZFP14 / Fold change vs veh, ZFP14 / RFU, ACTR2 / Fold change vs veh, ACTR2 / RFU, PPP3R1 / Fold change vs veh, PPP3R1 / RFU, PIK3R1 / Fold change vs veh, PIK3R1 / RFU, HNRNPA1 / Fold change vs veh, HNRNPA1 / RFU, RNF170 / Fold change vs veh, RNF170 / RFU, ZNF28 / Fold change vs veh, ZNF28 / RFU, RNGTT / Fold change vs veh, RNGTT / RFU, OGT / Fold change vs veh, OGT / RFU, BRD1 / Fold change vs veh, BRD1 / RFU, MARS / Fold change vs veh, MARS / RFU, ZNF655 / Fold change vs veh, ZNF655 / RFU, FAHD1 / Fold change vs veh, FAHD1 / RFU, BDP1 / Fold change vs veh, BDP1 / RFU, LRRCC1 / Fold change vs veh, LRRCC1 / RFU, ARID1A / Fold change vs veh, ARID1A / RFU, ZNF146 / Fold change vs veh, ZNF146 / RFU, ZNF330 / Fold change vs veh, ZNF330 / RFU, GPN3 / Fold change vs veh, GPN3 / RFU, C9orf123 / Fold change vs veh, C9orf123 / RFU, N4BP2L2 / Fold change vs veh, N4BP2L2 / RFU, ARFIP1 / Fold change vs veh, ARFIP1 / RFU, FAM179B / Fold change vs veh, FAM179B / RFU, BCL10 / Fold change vs veh, BCL10 / RFU, UHRF1BP1L / Fold change vs veh, UHRF1BP1L / RFU, BET1 / Fold change vs veh, BET1 / RFU, CNOT2 / Fold change vs veh, CNOT2 / RFU, ZNF268 / Fold change vs veh, ZNF268 / Fold change vs veh, ZNF507 / RFU, DGCR2 / Fold change vs veh, DGCR2 / RFU, WDSUB1 / Fold change vs veh, WDSUB1 / Fold change vs veh, HSP90B1 /// MIR3652 / RFU, ADSS / Fold change vs veh, ADSS / RFU, GK / Fold change vs veh, GK / RFU, ZNF148 / Fold change vs veh, ZNF148 / RFU, TAF9 / Fold change vs veh, TAF9 / RFU, SLC1A5 / Fold change vs veh, SLC1A5 / RFU, SLMO2 / Fold change vs veh, SLMO2 / RFU, ABCC4 / Fold change vs veh, ABCC4 / RFU, LOC101060439 /// RAP1B / Fold change vs veh, LOC101060439 /// RAP1B / RFU, RFX7 / Fold change vs veh, RFX7 / RFU, GTPBP10 / Fold change vs veh, GTPBP10 / RFU, CNEP1R1 / Fold change vs veh, CNEP1R1 / RFU, BIVM-ERCC5 /// ERCC5 / Fold change vs veh, BIVM-ERCC5 /// ERCC5 / RFU, ILF3 / Fold change vs veh, ILF3 / RFU 11762660_at / Fold change /veh 11762660_at / RFU VCAN (11757783_s_at) / Fold change /veh VCAN (11757783_s_at) / RFU DDX43 (11728927_at) / Fold change /veh DDX43 (11728927_at) / RFU KRT8 (11758188_x_at) / Fold change /veh KRT8 (11758188_x_at) / RFU NKD1 (11759106_at) / Fold change /veh NKD1 (11759106_at) / RFU SRD5A1 (11742802_a_at) / Fold change /veh SRD5A1 (11742802_a_at) / RFU TPSAB1 /// TPSB2 (11721975_s_at) / Fold change /veh TPSAB1 /// TPSB2 (11721975_s_at) / RFU GSTM3 (11746129_a_at) / Fold change /veh GSTM3 (11746129_a_at) / RFU IL23R (11737362_x_at) / Fold change /veh IL23R (11737362_x_at) / RFU TMEM51 (11727254_a_at) / Fold change /veh TMEM51 (11727254_a_at) / RFU PIWIL2 (11732686_x_at) / Fold change /veh PIWIL2 (11732686_x_at) / RFU ORM1 (11744905_x_at) / Fold change /veh ORM1 (11744905_x_at) / RFU CCDC152 (11743942_at) / Fold change /veh CCDC152 (11743942_at) / RFU ECM1 (11717891_a_at) / Fold change /veh ECM1 (11717891_a_at) / RFU IL23R (11748794_a_at) / Fold change /veh IL23R (11748794_a_at) / RFU TNFAIP8L3 (11732012_x_at) / Fold change /veh TNFAIP8L3 (11732012_x_at) / RFU MBOAT4 (11741988_at) / Fold change /veh MBOAT4 (11741988_at) / RFU 11764193_at / Fold change /veh 11764193_at / RFU TMEM53 (11763286_at) / Fold change /veh TMEM53 (11763286_at) / RFU MAGEB2 (11727129_at) / Fold change /veh MAGEB2 (11727129_at) / RFU TMEM200A (11744735_a_at) / Fold change /veh TMEM200A (11744735_a_at) / RFU CCDC152 (11751479_a_at) / Fold change /veh CCDC152 (11751479_a_at) / RFU FAM211A (11726209_a_at) / Fold change /veh FAM211A (11726209_a_at) / RFU RGS16 (11746705_a_at) / Fold change /veh RGS16 (11746705_a_at) / RFU VCAN (11755009_s_at) / Fold change /veh VCAN (11755009_s_at) / RFU RHOB (11743442_s_at) / Fold change /veh RHOB (11743442_s_at) / RFU RGS16 (11720943_a_at) / Fold change /veh RGS16 (11720943_a_at) / RFU RGS16 (11720944_at) / Fold change /veh RGS16 (11720944_at) / RFU, VPS4B / Fold change vs veh, VPS4B / RFU, CREB1 / Fold change vs veh, CREB1 / RFU, DNAJC13 / Fold change vs veh, DNAJC13 / RFU, GNAQ / Fold change vs veh, GNAQ / RFU, CDK5R1 / Fold change vs veh, CDK5R1 / RFU, ZRANB3 / Fold change vs veh, ZRANB3 / RFU, CUL4A / Fold change vs veh, CUL4A / RFU, CCNY / Fold change vs veh, CCNY / RFU, UFL1 / Fold change vs veh, UFL1 / RFU, COG3 / Fold change vs veh, COG3 / RFU, DIAPH2 / Fold change vs veh, DIAPH2 / RFU, SKA2 / Fold change vs veh, SKA2 / RFU, AFF3 / Fold change vs veh, AFF3 / RFU, LMF1 / Fold change vs veh, LMF1 / RFU, IPO11 / Fold change vs veh, IPO11 / RFU, DFFB / Fold change vs veh, DFFB / RFU, FOXP1 / Fold change vs veh, FOXP1 / RFU, CARD8 / Fold change vs veh, CARD8 / RFU, STRN3 / Fold change vs veh, STRN3 / RFU, ADK / Fold change vs veh, ADK / RFU, RASSF2 / Fold change vs veh, RASSF2 / RFU, WIPF1 / Fold change vs veh, WIPF1 / RFU, LARP1B / Fold change vs veh, LARP1B / RFU, RASA1 / Fold change vs veh, RASA1 / RFU, RB1 / Fold change vs veh, RB1 / RFU, PPFIA1 / Fold change vs veh, PPFIA1 / RFU, MAT2A / Fold change vs veh, MAT2A / RFU, CCT5 / Fold change vs veh, CCT5 / RFU, WDR92 / Fold change vs veh, WDR92 / RFU, CUX1 / Fold change vs veh, CUX1 / RFU, TTC7A / Fold change vs veh, TTC7A / RFU, TMEM135 / Fold change vs veh, TMEM135 / RFU, DEPTOR / Fold change vs veh, DEPTOR / RFU, CPM / Fold change vs veh, CPM / RFU, DNAJB6 / Fold change vs veh, DNAJB6 / RFU, CACNA2D3 / Fold change vs veh, CACNA2D3 / RFU, DTX4 / Fold change vs veh, DTX4 / RFU, TFCP2 / Fold change vs veh, TFCP2 / RFU, GMCL1 /// GMCL1P1 / Fold change vs veh, GMCL1 /// GMCL1P1 / RFU, AEBP2 / Fold change vs veh, AEBP2 / RFU, SNHG1 /// SNORD22 /// SNORD25 /// SNORD26 /// SNORD27 /// SNORD28 /// SNORD29 /// SNORD31 / Fold change vs veh, SNHG1 /// SNORD22 /// SNORD25 /// SNORD26 /// SNORD27 /// SNORD28 /// SNORD29 /// SNORD31 / Fold change (Aza/veh), C12orf56 (ProbeSet 11735607_a_at) / Fold change (ACY-1035/veh), C12orf56 (ProbeSet 11735607_a_at) / Fold change (Aza/veh), FGFR1OP (ProbeSet 11751329_s_at) / Fold change (ACY-1035/veh), FGFR1OP (ProbeSet 11751329_s_at) / Fold change (Aza/veh), VPS36 (ProbeSet 11739960_a_at) / Fold change (ACY-1035/veh), VPS36 (ProbeSet 11739960_a_at) / RFU SYPL1 (11715823_x_at) / Fold change /veh SYPL1 (11715823_x_at) / RFU IGFBP7 (11715501_s_at) / Fold change /veh IGFBP7 (11715501_s_at) / RFU REEP3 (11722064_at) / Fold change /veh REEP3 (11722064_at) / RFU IGLL1 (11728026_x_at) / Fold change /veh IGLL1 (11728026_x_at): dose or concentration left out as unconfirmed. Conditions: ProbeSet 11745428_a_at; LIST D.

As to `Nc1ccc(-c2cccs2)cc1NC(=O)c1ccc2c(c1)cc(C1CC1)n2CCN1CCOCC1` [ACY-1035], the “Fold change vs veh, DFFB” value is reported as 0.87.
